The values below come from patent US20260231929A1, “SOLVENT COMPOSITION FOR AGROCHEMICAL FORMULATIONS” (SPECIALTY OPERATIONS FRANCE, priority 2023, published 2026).

This data set in a line: Test 1: Maximal solubility of an active in a solvent system (visual observation). In kind it is physicochemical. The text has this: The maximal solubility of an active or a combo of actives in a solvent system is characterized by visual observation. At a given concentration, if the mixture is limpid (with the naked eye), the active ingredient(s) is (are) considered to be soluble in the solvent system at this concentration. However, if a sedimentation of the active ingredient(s) appears, it is not soluble anymore in the solvent system and the maximal solubility is reached. The maximal solubility is thus defined as the maximum amount of active ingredient(s) that can be dissolved in the solvent system, equal to the amount at which the mixture remains limpid (with the naked eye). Each active ingredient or combo is added little by little in different solvent systems. The solutions are magnetically stirred until complete dissolution. Then an additional amount of active ingredient is added and this operation is repeated until the last part of active ingredient added could not be dissolved anymore, taking care to stir the solution after each addition of active ingredient.

In the case of `CCCCCCCCCC(=O)N(C)C` [Rhodiasolv ® ADMA 10, N,N-dimethyldecanamide], the “maximal solubility of Oxyfluorfen” value (oxyfluorfen (solo) dissolved in the solvent system) is 49.0 g/100 g of solvent. Also, under “picoxystrobin (solo) dissolved in the solvent system”, the “maximal solubility of Picoxystrobin” value is listed as 30.0 g/100 g of solvent.
